Experimental findings from publication PMC13541837, “High-yield production and functional analysis of novel rhizobial-type glutaminase-free L-asparaginase from Paenibacillus thiaminolyticus” (Folia Microbiologica, 2025) are described below.

In assay [1] the target is T1, ASN339Pt iso 1 (Paenibacillus thiaminolyticus, UniProt A0AAP9J308).
T1 construct: gene M5W83_23570; motifs RSSSKPVQAL and NCSGKHLGV; not isoenzyme 2 WP_087440700.1
The assay can be described thus: ammonia release, Nessler's reagent, […] nm; modified substrate inhibition model (Eq. […], n = […]). Type of assay: biochemical. Particulars: 100 mM Tris pH 9.0, 37 °C, 10 min (standard assay); L-asparagine 1.9-145 mmol L^-1; fit with substrate inhibition; read-out: Results (according to Eq. (2)).

For assay [2], the target named is T1, ASN339Pt iso 1. The description is as above. The class given is biochemical. The note with it: 100 mM Tris pH 9.0, 37 °C, 10 min (standard assay); L-asparagine 1.9-145 mmol L^-1; fit with substrate inhibition; substrate inhibition constant, two additional substrate molecules (n = 2), active sit.
The target in assay [3] is L-asparaginase from Paenibacillus thiaminolyticus (isoenzyme 1) (Paenibacillus thiaminolyticus). Nature of the assay: SEC; HiPrep 16/60 Sephacryl S-100 HR, flow rate 0.5 mL/min, 50 mM phosphate (K+) buffer pH 8.0; standards lysozyme (14 kDa), amylase (55 kDa), aldolase (160 kDa). Background: SEC sorts molecules by how far they enter the pores of the column.

T1 sequence (A0AAP9J308 entry or part of it): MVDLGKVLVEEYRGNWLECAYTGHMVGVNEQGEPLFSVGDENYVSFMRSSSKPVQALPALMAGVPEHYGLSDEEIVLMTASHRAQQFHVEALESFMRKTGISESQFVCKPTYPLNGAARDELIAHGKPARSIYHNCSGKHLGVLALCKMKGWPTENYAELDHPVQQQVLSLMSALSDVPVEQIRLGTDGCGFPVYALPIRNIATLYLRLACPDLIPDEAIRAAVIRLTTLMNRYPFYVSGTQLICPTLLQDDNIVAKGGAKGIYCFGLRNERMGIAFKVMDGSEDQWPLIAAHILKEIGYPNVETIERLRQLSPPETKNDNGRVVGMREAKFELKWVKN

Turning to `NC(=O)C[C@H](N)C(=O)O` [L-asparagine], the Km at ASN339Pt iso 1 [1] worked out at 26 ± 8 mM. Besides, the “Results (according to Eq. (2))” value at ASN339Pt iso 1 [2] turned out to be 32 ± 5 mmol/L.

The stoichiometry N is the number of molecules, sites or subunits per partner or assembly. Turning to “L-asparaginase from Paenibacillus thiaminolyticus (isoenzyme 1)”, the stoichiometry N in assay [3] came to 2.
